Measurements: patent US8629272B2, “Tricyclic pyrimidine derivatives as wnt antagonists” (Deutsches Krebsforschungszentrum, priority 2009, dated 2014)
pIC50: −log10 of the molar value.

Assays:
Assay type in all cases: cell-based
Wnt signalling pathway = experiment: Wnt-sensitive reporter gene assay (6xTCF-luciferase, pTOP-FLASH) in Hek293T cells; set-up: Normalized Wnt pathway (inhibitory) activity: scale not given here; conditions: for pIC50: Homo sapiens, HEK-293T, Hek293T, 24 h incubation, 5 nM-100 microM, read-out: IC50 of the Wnt signalling pathway inhibiting activity
Experimental: To screen for small-molecule modulators of the Wnt signalling pathway, a reporter gene based assay describing the modulation of the TCF4 transcription factor was used. More specifically 4000 Hek293T cells were seeded into 384 high density plates. 24 h after seeding a Wnt-sensitive reporter (6×TCF-luciferase (Firefly) (pTOP-FLASH; “Armadillo co activates transcription driven by the product of the drosophila segment polarity gene dTCF”, Cell, 1997, 88(6), pages 789-799) and constitutively expressed control reporter (Renilla luciferase pCMV-RL) were transfected into Hek293T. Wnt signaling was stimulated by cotransfecting mouse Wnt1, mouse Frizzled 8 and human LRP6 according to “Casein kinase 1 gamma couples Wnt receptor activation to cytoplasmic signal transduction”, Nature, 2005, 438 (7069), pages 867-872. 24 h after pathway stimulation compounds were added at a concentration of 10 microM and allowed to incubate for 24 h. For the evaluation of the IC50 the compound was applied in increasing concentrations yielding final concentrations per well of 5 nM-100 microM.

Hek293T = experiment: Cytotoxicity in Hek293T, CellTiterGlo; conditions: 24 h
Experimental: (§1) For examination of cytotoxicity in these cancer cell lines the commercial available CellTiterGlo® Reagent (Promega, USA) was used according to the manufactor. Compounds were applied to Hek293T (denoted (1)) or HepG2 (denoted (2)), cultured in Dulbecco's Modified Eagles Medium, supplemented with 10% fetal calf serum and 1% penicillin/streptomycin. Cells were grown in T75 flasks at 37° C., 5% CO2 and trypsinized when 60-80% confluent by adding 2 ml of 0.25% Trypsin-EDTA solution. Cells were then re-suspended into culture medium yielding approx. 4000 cells (1) or 4500 cells (2), suspended in 30 microl medium. 48 h after cell seeding, compounds were added to yield the desired final concentrations. 24 h after compound addition cytotoxicity was evaluated. For this purpose the media was removed and CellTiterGlo® was added according to the manufactors manual. In this assay the luciferase emission readout is directly correlated with the cellular amount of ATP, low luciferase emission thus is reflecting cytotoxicity of a compound. For the evaluation of the IC50 the compound was applied in increasing concentrations yielding final concentrations per well of 5 nM-100 microM.

HepG2 = experiment: Cytotoxicity in HepG2, CellTiterGlo; conditions: 24 h
Experimental: as §1

[1] = tested on: human colon carcinoma cells HCT116; experiment: Antiproliferative activity against HCT116, cell count
Experimental: For examination of cell line-specific cytotoxicity, compounds were applied to human colorectal cancer cells (HCT116, denoted (1); SW480, denoted (2); Dld-1, denoted (3)) and human fibroblasts (HFF-1, denoted (4); HS-68, denoted (5)), cultured in Mc Coy's (1) and Dulbecco's Modified Eagles Medium (2-5), supplemented with 10% ((1)-(3)) and 20% ((4), (5)) fetal calf serum and 1% penicillin/streptomycin. Cells were grown in T75 flasks at 37° C., 5% CO2 and trypsinized when 60-80% confluent by adding 2 ml of 0.25% Trypsin-EDTA solution. Cells were then re-suspended into culture medium and approx. 750 cells, suspended in 45 microl medium, were plated into each well of a black 384-well plate for fluorescence imaging experiments. 24-36 hr later 5 microl compound solution (100 microM compound dissolved in ultra pure water containing 1% DMSO), were added to achieve a final concentration of 10 microM and were incubated for at least 72 hr. Compound incubation was terminated by (a) fixation and (b) permeabilisation of cells, followed by (c) fluorescence labeling of cell nuclei for cytometric quantification or by immunocytochemistry for microscopic evaluation of cell morphology. The three steps were performed by replacing the solution of the previous step in each well of a 384-well plate by (a) 30 microl PBS (phosphate buffered saline) containing 5% PFA (paraformaldehyde), (b) 30 microl PBS containing 0.2% TritonX-100 and (c) 10 microl PBS containing Hoechst-33342 for cytometry or Hoechst-33342, FITC (fluorescein isothiocyanate-) labeled α-tubulin antibodies and TRITC-(tetramethylrhodamine isothiocyanate-) labeled phalloidin antibodies for microscopy. Solutions were incubated for 15 (a,b) and 30 min (c) in the dark at room temperature. Cells were washed twice between each step with 30 microl PBS. The assay system was miniaturized and adapted to automated workflow using liquid-handling robotics.
Cell line-specific cytotoxicity was quantified by counting the number of Hoechst labeled nuclei per well of a 384-well plate using a plate cytometer. Data obtained with the cytometer was analysed using standard data analysis software.
The examination of the antiproliferative activity against human colon carcinoma cells HCT116 was carried out in analogy to example 35. […] Compounds of the present invention have potent antiproliferative activity against human colon carcinoma cells as shown for HCT116 in Table 6.

SMILES: CCOC(=O)C1=C(C)Nc2c(c3nnc(-c4cccc(OC)c4)n3c(=O)n2-c2ccccc2)C1c1ccccc1 (stereo not drawn) [Example 15, 3-(3-Methoxy-phenyl)-7-methyl-4-oxo-5,9-diphenyl-4,5,6,9-tetrahydro-1,2,3a,5,6-pentaaza-cyclopenta[a]naphthalene-8-carboxylic acid ethyl ester]
- Normalized Wnt pathway (inhibitory) activity (Wnt signalling pathway; 0.005 microM): 0.9417
- Normalized Wnt pathway (inhibitory) activity (Wnt signalling pathway; 0.015 microM): 0.9230
- Normalized Wnt pathway (inhibitory) activity (Wnt signalling pathway; 0.137 microM): 1.0963
- Normalized Wnt pathway (inhibitory) activity (Wnt signalling pathway; 0.412 microM): 0.9830
- Normalized Wnt pathway (inhibitory) activity (Wnt signalling pathway; 1.235 microM): 0.8830
- Normalized Wnt pathway (inhibitory) activity (Wnt signalling pathway; 3.704 microM): 0.2973
- Normalized Wnt pathway (inhibitory) activity (Wnt signalling pathway; 11.111 microM): 0.2350
- Normalized Wnt pathway (inhibitory) activity (Wnt signalling pathway; 33.333 microM): 0.4200
- Normalized Wnt pathway (inhibitory) activity (Wnt signalling pathway; 100.000 microM): 0.4505
- pIC50 (Wnt signalling pathway): 5.87
- Normalized toxicity values (Hek293T) (Hek293T; 0.005 microM): 1.1205
- Normalized toxicity values (Hek293T) (Hek293T; 0.015 microM): 1.0500
- Normalized toxicity values (Hek293T) (Hek293T; 0.046 microM): 1.2200
- Normalized toxicity values (Hek293T) (Hek293T; 0.137 microM): 0.9283
- Normalized toxicity values (Hek293T) (Hek293T; 0.412 microM): 0.9603
- Normalized toxicity values (Hek293T) (Hek293T; 1.235 microM): 0.8915
- Normalized toxicity values (Hek293T) (Hek293T; 3.704 microM): 1.0113
- Normalized toxicity values (Hek293T) (Hek293T; 11.111 microM): 1.1550
- Normalized toxicity values (Hek293T) (Hek293T; 33.333 microM): 1.0515
- Normalized toxicity values (Hek293T) (Hek293T; 100.000 microM): 1.4175
- Normalized toxicity values (HepG2) (HepG2; 0.005 microM): 1.0700
- Normalized toxicity values (HepG2) (HepG2; 0.015 microM): 1.0465
- Normalized toxicity values (HepG2) (HepG2; 0.046 microM): 1.1350
- Normalized toxicity values (HepG2) (HepG2; 0.137 microM): 0.9913
- Normalized toxicity values (HepG2) (HepG2; 0.412 microM): 1.0390
- Normalized toxicity values (HepG2) (HepG2; 1.235 microM): 0.9878
- Normalized toxicity values (HepG2) (HepG2; 3.704 microM): 1.1575
- Normalized toxicity values (HepG2) (HepG2; 11.111 microM): 1.1825
- Normalized toxicity values (HepG2) (HepG2; 33.333 microM): 1.2000
- Normalized toxicity values (HepG2) (HepG2; 100.000 microM): 1.5075
- Normalized cell count (HCT 116) ([1]; 0.005 microM): 1
- Normalized cell count (HCT 116) ([1]; 0.015 microM): 1.039
- Normalized cell count (HCT 116) ([1]; 0.046 microM): 1.013
- Normalized cell count (HCT 116) ([1]; 0.137 microM): 0.9313
- Normalized cell count (HCT 116) ([1]; 0.412 microM): 0.9219
- Normalized cell count (HCT 116) ([1]; 1.235 microM): 0.865
- Normalized cell count (HCT 116) ([1]; 3.704 microM): 0.7235
- Normalized cell count (HCT 116) ([1]; 11.111 microM): 0.2716
- Normalized cell count (HCT 116) ([1]; 33.333 microM): 0.257
- Normalized cell count (HCT 116) ([1]; 100.000 microM): 0.1496

SMILES: CCOC(=O)C1=C(c2ccccc2)c2c(n(-c3ccccc3)c(=O)n3c(-c4ccc(OC)cc4)nnc23)NC1C (stereo not drawn) [Example 18]
- Normalized Wnt pathway (inhibitory) activity (Wnt signalling pathway; 0.005 microM): 0.8680
- Normalized Wnt pathway (inhibitory) activity (Wnt signalling pathway; 0.015 microM): 1.1175
- Normalized Wnt pathway (inhibitory) activity (Wnt signalling pathway; 0.046 microM): 1.0168
- Normalized Wnt pathway (inhibitory) activity (Wnt signalling pathway; 0.137 microM): 1.0825
- Normalized Wnt pathway (inhibitory) activity (Wnt signalling pathway; 0.412 microM): 1.1223
- Normalized Wnt pathway (inhibitory) activity (Wnt signalling pathway; 1.235 microM): 0.7260
- Normalized Wnt pathway (inhibitory) activity (Wnt signalling pathway; 3.704 microM): 0.8798
- Normalized Wnt pathway (inhibitory) activity (Wnt signalling pathway; 11.111 microM): 0.6365
- Normalized Wnt pathway (inhibitory) activity (Wnt signalling pathway; 33.333 microM): 0.4930
- Normalized Wnt pathway (inhibitory) activity (Wnt signalling pathway; 100.000 microM): 0.2505
- pIC50 (Wnt signalling pathway): 4.66
- Normalized toxicity values (Hek293T) (Hek293T; 0.005 microM): 1.1075
- Normalized toxicity values (Hek293T) (Hek293T; 0.015 microM): 1.0110
- Normalized toxicity values (Hek293T) (Hek293T; 0.046 microM): 1.0523
- Normalized toxicity values (Hek293T) (Hek293T; 0.137 microM): 1.0088
- Normalized toxicity values (Hek293T) (Hek293T; 0.412 microM): 1.0313
- Normalized toxicity values (Hek293T) (Hek293T; 1.235 microM): 1.0733
- Normalized toxicity values (Hek293T) (Hek293T; 3.704 microM): 1.1200
- Normalized toxicity values (Hek293T) (Hek293T; 11.111 microM): 1.0825
- Normalized toxicity values (Hek293T) (Hek293T; 33.333 microM): 1.1175
- Normalized toxicity values (Hek293T) (Hek293T; 100.000 microM): 0.9883
- Normalized toxicity values (HepG2) (HepG2; 0.005 microM): 1.1400
- Normalized toxicity values (HepG2) (HepG2; 0.015 microM): 1.0110
- Normalized toxicity values (HepG2) (HepG2; 0.046 microM): 1.0350
- Normalized toxicity values (HepG2) (HepG2; 0.137 microM): 0.9173
- Normalized toxicity values (HepG2) (HepG2; 0.412 microM): 0.9185
- Normalized toxicity values (HepG2) (HepG2; 1.235 microM): 0.9953
- Normalized toxicity values (HepG2) (HepG2; 3.704 microM): 0.9855
- Normalized toxicity values (HepG2) (HepG2; 11.111 microM): 1.0800
- Normalized toxicity values (HepG2) (HepG2; 33.333 microM): 1.1125
- Normalized toxicity values (HepG2) (HepG2; 100.000 microM): 1.1375
- Normalized cell count (HCT 116) ([1]; 0.005 microM): 1
- Normalized cell count (HCT 116) ([1]; 0.015 microM): 0.9377
- Normalized cell count (HCT 116) ([1]; 0.046 microM): 0.9859
- Normalized cell count (HCT 116) ([1]; 0.137 microM): 0.8603
- Normalized cell count (HCT 116) ([1]; 0.412 microM): 0.9166
- Normalized cell count (HCT 116) ([1]; 1.235 microM): 0.8399
- Normalized cell count (HCT 116) ([1]; 3.704 microM): 0.4154
- Normalized cell count (HCT 116) ([1]; 11.111 microM): 0.1595
- Normalized cell count (HCT 116) ([1]; 33.333 microM): 0.1555
- Normalized cell count (HCT 116) ([1]; 100.000 microM): 0.1892
